Laboratory results from US9957288B2, “Pyrabactin analogues to modulate plant development” (Universiteit Gent, priority 2014, dated 2018).
Read-outs that look alike come from different tables or passages of the source.

Assays:
[1] = system: Arabidopsis thaliana seeds; assay: Arabidopsis thaliana seed germination assay; assay type: in vivo
[2] = system: Arabidopsis thaliana Columbia (Col0) seedlings; assay: Primary root elongation of etiolated seedlings on compound medium; assay type: in vivo
[3] = system: Nicotiana benthamiana leaves; assay: Leaf dehydration assay (weight loss of pre-treated detached leaves in dry air flow); assay type: in vivo; conditions: for effect on leaf weight loss / transpiration: pre-treatment: ABA 10 and 100 μM, analogues 10 μM, 6 h dry air flow; for % weight loss (average): average of 5-10 leaves, control 29.51%
[4] = system: etiolated Arabidopsis thaliana seedlings
tobacco epidermal strips = assay: Stomatal closure assay on epidermal strips; assay type: cell-based, Nicotiana tabacum
[5] = system: Arabidopsis thaliana seedlings; conditions: in vivo
[6] = system: Arabidopsis thaliana Columbia (Col0) seedlings; assay: Lateral root initiation (lateral roots + lateral root primordia, number and density); assay type: in vivo
[7] = 13 d old etiolated seedlings, 10 μM

Row | SMILES | Seed germination ([1]; in vivo) | PR ([2]; in vivo) | effect on primary root growth ([2]; in vivo) | effect on leaf weight loss / transpiration [3] | AR ([4]; in vivo) | Stomata (tobacco epidermal strips) | effect on stomatal aperture (tobacco epidermal strips) | Shoot [5] | LR ([6]; in vivo) | effect on LR+ LRP density (per cm primary root) ([6]; in vivo) | effect on number of LR+ LRP (lateral root initiation) ([6]; in vivo) | other results
1 | CCOP(=O)(NCc1ccccn1)c1ccc(Br)c2ccccc12 (centres unmarked) [Analogue E1, Ethyl N-(pyridin-2-ylmethyl)-P-(4-bromonapht-1-yl)phosphonamidate] | 0 | + | modest inhibitors of primary root elongation | reduction of transpiration | − | − | did not cause closure of the stomata and even induced the opening | 0 | ++ | strong density reduction (even stronger than ABA) | strong inhibitors | 
2 | CC1=CC(=O)CC(C)(C)[C@@]1(O)/C=C/C(C)=C\C(=O)O [ABA, Abscisic acid, reference compound] | +++ | +++ |  | significantly less weight loss | 0 | +++ | rapidly induces stomatal closure | +++ | +++ | reduced the number of roots per cm primary root | strongly reduced the number of LR+ LRP | effect on seed germination ([1]; in vivo): inhibited seed germination stronger than pyrabactin; reduction of primary root length ([2]; in vivo): 5 fold; % weight loss (average) ([3]; leaves pre-treated with 10 μM): 18.54%; % weight loss (average) ([3]; leaves pre-treated with 100 μM): 16.99%; effect on adventitious root formation ([4]; in vivo): not affected; relative stomatal aperture (tobacco epidermal strips): 40%; time to 50% of closure of stomata (tobacco epidermal strips): ≤ 10 min
3 | O=P(O)(NCc1ccccn1)c1ccc(Br)c2ccccc12 [Analogue E10, Hydrogen N-(pyridin-2-ylmethyl)-P-(4-bromonapht-1-yl)phosphonamidate] |  |  |  | reduction of transpiration |  |  |  | 0 |  |  |  | Seed germination ([1]; 10 μM, compared with control not-treated seeds): 0; effect on primary root growth ([2]; 10 μM): modest inhibitors of primary root elongation; PR ([2]; primary root, 10 μM, compared with control not-treated seedlings): +; AR ([4]; adventitious root, 10 μM, compared with control not-treated seedlings): −; effect on stomatal aperture (tobacco epidermal strips; 10 μM): intermediate stomatal closure; Stomata (tobacco epidermal strips; 10 μM, compared with control not-treated epidermal strips): +; effect on LR+ LRP density (per cm primary root) [6, 7]: reduced the numbers of LR+ LRP similarly to ABA; effect on number of LR+ LRP (lateral root initiation) [6, 7]: modest to weak inhibitors of lateral root formation; LR ([6]; lateral root, 10 μM, compared with control not-treated seedlings): +
4 | CCOP(=O)(NCc1ccccn1)c1cccc2ccccc12 (centres unmarked) [Analogue E9, Ethyl N-(pyridin-2-ylmethyl)-P-(napht-1-yl)phosphonamidate] | 0 | 0 | modest inhibitors of primary root elongation | reduction of transpiration | − | 0 | did not affect the size of the stomatal aperture | 0 | + | reduced the numbers of LR+ LRP similarly to ABA | modest to weak inhibitors of lateral root formation | 
